# Assay results as given in patent publication US6037334A, “Phosphonates, process for preparing the same and medicaments” (Roche Diagnostics GmbH, priority 1996, dated 2000).
# Structures can show the parent of a compound that is named as a salt.
# Tests used:
# horse thrombin = assay: Thrombin Time; type: biochemical; details: 500 μM final; difference to the control; 37° C.; citrate plasma, ca. 3 U/ml horse thrombin
# Experimental: (§1) 9 parts of fresh blood from healthy donors was mixed with one part of sodium citrate solution (0.11 mol/l) and it was centrifuged for 10 minutes at room temperature at ca. 3000 r.p.m. The plasma was removed by pipette and can be stored at room temperature for ca. 8 hours.
# 200 μl citrate plasma is incubated for 2 minutes at 37° C. in a ball coagulometer (KC10 from the Amelung Company). 10 μl dimethylsulfoxide (DMSO) or a solution of the active substance in DMSO is added to 190 μl pre-heated thrombin reagent (Boehringer Mannheim GmbH; contains ca. 3 U/ml horse thrombin and 0.0125 M Ca^++). On addition of 200 μl of this solution to the plasma a stopwatch is started and the time at which coagulation starts is determined. The thrombin time is ca. 24 sec. in control measurements and is extended by the active substances. If no coagulation occurred in the measurements after 5 minutes the experiment was stopped (>300).
# The measured thrombin times in seconds are given in table 1 as a difference to the control. The concentrations of the active substances in the final volume were 500 μM (TT 500).
# citrate plasma = assay: Activated Partial Thromboplastin Time (APTT); type: biochemical, human; details: difference to the control, 37° C.
# Experimental: as §1
# Activated Partial Thromboplastin Time (APTT)
# 100 μl citrate plasma and 100 μl APTT reagent (Stago Diagnostics/Boehringer Mannheim GmbH; contains cephalin lyophilisate with a microcrystalline kieselguhr activator) are incubated for 3 minutes at 37° C. together with 10 μl dimethylsulfoxide (DMSO) or 10 μl of a solution of the active substance in DMSO in a ball coagulometer (KC10 from the Amelung Company). On addition of 100 μl 0.025 M calcium chloride solution a stopwatch is started and the time at which coagulation starts is determined. The APTT is ca. 28-35 seconds in the control measurements and is extended by the active substances. If no coagulation occurred in the measurements after 5 minutes the experiment was stopped (>300).
# The measured APTT times in seconds are given in table 1 as a difference to the control. The concentrations of the active substances in the final volume were 100 μM (APTT 100), 10 μM (APTT 10), 1 μM (APTT 1), 0.1 μM (APTT 0.1).
# human factor Xa = human factor Xa (Homo sapiens, UniProt P00742); assay: biochemical
# Chain of human factor Xa (P00742 235-488 limits assumed): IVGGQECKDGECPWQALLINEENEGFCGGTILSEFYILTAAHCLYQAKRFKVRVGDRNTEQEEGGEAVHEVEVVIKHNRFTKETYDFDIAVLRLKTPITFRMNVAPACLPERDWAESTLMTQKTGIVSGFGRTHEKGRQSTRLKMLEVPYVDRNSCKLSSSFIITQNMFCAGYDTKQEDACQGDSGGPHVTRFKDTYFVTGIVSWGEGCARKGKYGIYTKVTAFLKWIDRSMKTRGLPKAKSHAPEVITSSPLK
# Chain of human factor Xa (P00742 41-179 partner limits assumed): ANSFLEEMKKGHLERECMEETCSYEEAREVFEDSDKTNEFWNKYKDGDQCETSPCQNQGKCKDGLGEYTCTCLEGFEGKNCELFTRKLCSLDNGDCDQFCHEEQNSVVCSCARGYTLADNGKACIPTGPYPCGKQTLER
# Experimental: The kinetic measurements were carried out at pH=7.5 and 25° C. in 0.1 M phosphate buffer that contained 0.2 M sodium chloride and 0.5% polyethylene glycol 6000 (see below for preparation) in polystyrene semi-microcuvettes in a total volume of 1 ml. The reactions were started by addition of enzyme to pre-incubated solutions that contained either dimethyldisulfoxide (control) or solutions of the test substance in DMSO (inhibitor stock solutions: 10 mM in DMSO). The increase in absorbance at 405 nm due to the release of p-nitroaniline from the substrate was monitored over a time period of 12 minutes.
# The inhibition constants Ki were determined as follows. […] KM and Vmax were determined from a measurement series (constant inhibitor concentration, variable substrate concentrations) by a non-linear fit to the equation [formula]
# The Ki value is obtained by non-linear regression from the entire series of measurements with 16 sets of data (measurements at 4 different substrate concentrations and each with 4 different inhibitor concentrations) from the equation [formula] in which VMax denotes the maximum rate in the absence of an inhibitor, KM denotes the Michaelis constant and [S] the substrate concentration. […]
compound,measurement,setting,value
"CCOP(=O)(OCC)C(Oc1ccc2ccc(C(=N)N)cc2c1)c1ccc(OC2CCN(C(C)=N)CC2)cc1 (stereo not drawn) [Example 1, (7-Carbamimidoyl-naphthalen-2-yloxy)-[{4-[1-(1-imino-ethyl)-piperidin-4-yloxy]-phenyl}-methyl)-phosphonic acid diethyl ester-dihydrochloride]",TT 500,horse thrombin,49 s
same,APTT 0.1,citrate plasma; 0.1 μM final,8 s
same,APTT 1,citrate plasma; 1 μM final,45 s
same,APTT 10,"citrate plasma; 10 μM final, >300 = no coagulation after 5 minutes",> 300 s
same,APTT 100,"citrate plasma; 100 μM final, >300 = no coagulation after 5 minutes",> 300 s
same,Ki,human factor Xa,2 nM
